Source: ChEMBL document CHEMBL4393707, “Synthesis and evaluation of new quinazolin-4(3H)-one derivatives as potent antibacterial agents against multidrug resistant Staphylococcus aureus and Mycobacterium tuberculosis” (Eur J Med Chem, 2019)
In brackets after ≈: the same amount, converted by molar mass.

Assays:
Assay type in all cases: functional
[1] = system: Staphylococcus aureus; experiment: Potentiation of linezolid-induced antibacterial activity against Staphylococcus aureus ATCC 29213 assessed as FIC incubated for 24 hrs by checkerboard titration assay
[2] = system: Staphylococcus aureus; experiment: Antibacterial activity against methicillin-resistant Staphylococcus aureus NR10192 incubated for 16 to 18 hrs by broth microdilution assay
[3] = system: Staphylococcus aureus; experiment: Synergistic antibacterial activity against Staphylococcus aureus ATCC 29213 assessed as FIC incubated for 24 hrs in presence of gentamycin by checkerboard titration assay
[4] = system: Staphylococcus aureus; experiment: Antibacterial activity against vancomycin-resistant Staphylococcus aureus VRS12 incubated for 16 to 18 hrs by broth microdilution assay
[5] = system: Staphylococcus aureus; experiment: Synergistic antibacterial activity against Staphylococcus aureus ATCC 29213 incubated for 24 hrs in presence of minocycline by checkerboard titration assay; conditions: ATCC 29213, 24 h
[6] = system: Staphylococcus aureus; experiment: Synergistic antibacterial activity against Staphylococcus aureus ATCC 29213 incubated for 24 hrs in presence of daptomycin by checkerboard titration assay; conditions: ATCC 29213, 24 h
[7] = system: Staphylococcus aureus; experiment: Potentiation of minocycline-induced antibacterial activity against Staphylococcus aureus ATCC 29213 assessed as minocycline MIC incubated for 24 hrs by checkerboard titration assay (reference value: 0.125 ug/ml); conditions: ATCC 29213, 24 h
[8] = system: Staphylococcus aureus; experiment: Antibacterial activity against vancomycin-resistant Staphylococcus aureus VRS4 incubated for 16 to 18 hrs by broth microdilution assay
[9] = system: Staphylococcus aureus; experiment: Antibacterial activity against methicillin-resistant Staphylococcus aureus NR10193 incubated for 16 to 18 hrs by broth microdilution assay
[10] = system: Staphylococcus aureus; experiment: Synergistic antibacterial activity against Staphylococcus aureus ATCC 29213 incubated for 24 hrs in presence of vancomycin by checkerboard titration assay; conditions: ATCC 29213, 24 h
[11] = system: Staphylococcus aureus; experiment: Synergistic antibacterial activity against Staphylococcus aureus ATCC 29213 assessed as FIC incubated for 24 hrs in presence of ceftazidime by checkerboard titration assay
[12] = system: Staphylococcus aureus; experiment: Potentiation of vancomycin-induced antibacterial activity against Staphylococcus aureus ATCC 29213 assessed as vancomycin MIC incubated for 24 hrs by checkerboard titration assay (reference value: 1 ug/ml); conditions: ATCC 29213, 24 h
[13] = system: Staphylococcus aureus; experiment: Potentiation of linezolid-induced antibacterial activity against Staphylococcus aureus ATCC 29213 assessed as linezolid MIC incubated for 24 hrs by checkerboard titration assay (reference value: 2 ug/ml); conditions: ATCC 29213, 24 h
[14] = system: Klebsiella pneumoniae; experiment: Antibacterial activity against Klebsiella pneumoniae ATCC BAA-1705 incubated for 16 to 18 hrs by broth microdilution assay
[15] = system: Staphylococcus aureus; experiment: Antibacterial activity against vancomycin-resistant Staphylococcus aureus VRS1 incubated for 16 to 18 hrs by broth microdilution assay
[16] = system: Staphylococcus aureus; experiment: Synergistic antibacterial activity against Staphylococcus aureus ATCC 29213 assessed as FIC incubated for 24 hrs in presence of daptomycin by checkerboard titration assay
[17] = system: Escherichia coli; experiment: Antibacterial activity against Escherichia coli ATCC 25922 incubated for 16 to 18 hrs by broth microdilution assay
[18] = system: Staphylococcus aureus; experiment: Synergistic antibacterial activity against Staphylococcus aureus ATCC 29213 assessed as sum of FIC for test compound in presence of linezolid and FIC for linezolid in presence of test compound incubated for 24 hrs by checkerboard titration assay
[19] = system: Staphylococcus aureus; experiment: Potentiation of minocycline-induced antibacterial activity against Staphylococcus aureus ATCC 29213 assessed as FIC incubated for 24 hrs by checkerboard titration assay
[20] = system: Staphylococcus aureus; experiment: Synergistic antibacterial activity against Staphylococcus aureus ATCC 29213 incubated for 24 hrs in presence of rifampicin by checkerboard titration assay; conditions: ATCC 29213, 24 h
[21] = system: Staphylococcus aureus; experiment: Synergistic antibacterial activity against Staphylococcus aureus ATCC 29213 incubated for 24 hrs in presence of levofloxacin by checkerboard titration assay; conditions: ATCC 29213, 24 h
[22] = system: Staphylococcus aureus; experiment: Synergistic antibacterial activity against Staphylococcus aureus ATCC 29213 assessed as FIC incubated for 24 hrs in presence of rifampicin by checkerboard titration assay
[23] = system: Staphylococcus aureus; experiment: Synergistic antibacterial activity against Staphylococcus aureus ATCC 29213 incubated for 24 hrs in presence of ceftazidime by checkerboard titration assay; conditions: ATCC 29213, 24 h
[24] = system: Staphylococcus aureus; experiment: Potentiation of gentamycin-induced antibacterial activity against Staphylococcus aureus ATCC 29213 assessed as FIC incubated for 24 hrs by checkerboard titration assay
[25] = system: Staphylococcus aureus; experiment: Antibacterial activity against methicillin-resistant Staphylococcus aureus NR10198 incubated for 16 to 18 hrs by broth microdilution assay
[26] = system: Staphylococcus aureus; experiment: Synergistic antibacterial activity against Staphylococcus aureus ATCC 29213 incubated for 24 hrs in presence of meropenem by checkerboard titration assay; conditions: ATCC 29213, 24 h
[27] = system: Acinetobacter baumannii; experiment: Antibacterial activity against Acinetobacter baumannii BAA1605 incubated for 16 to 18 hrs by broth microdilution assay
[28] = system: Staphylococcus aureus; experiment: Synergistic antibacterial activity against Staphylococcus aureus ATCC 29213 assessed as sum of FIC for test compound in presence of gentamycin and FIC for gentamycin in presence of test compound incubated for 24 hrs by checkerboard titration assay
[29] = system: Staphylococcus aureus; experiment: Synergistic antibacterial activity against Staphylococcus aureus ATCC 29213 assessed as FIC incubated for 24 hrs in presence of meropenem by checkerboard titration assay
[30] = system: Staphylococcus aureus; experiment: Antibacterial activity against methicillin-resistant Staphylococcus aureus NR119 incubated for 16 to 18 hrs by broth microdilution assay
[31] = system: Staphylococcus aureus; experiment: Antibacterial activity against methicillin-resistant Staphylococcus aureus NR10194 incubated for 16 to 18 hrs by broth microdilution assay
[32] = system: Staphylococcus aureus; experiment: Antibacterial activity against methicillin-resistant Staphylococcus aureus NR100 incubated for 16 to 18 hrs by broth microdilution assay
[33] = system: Staphylococcus aureus; experiment: Antibacterial activity against methicillin-susceptible Staphylococcus aureus ATCC 29213 incubated for 16 to 18 hrs by broth microdilution assay
[34] = system: Staphylococcus aureus; experiment: Antibacterial activity against Staphylococcus aureus ATCC 29213 incubated for 16 to 18 hrs by broth microdilution assay
[35] = system: Staphylococcus aureus; experiment: Synergistic antibacterial activity against Staphylococcus aureus ATCC 29213 assessed as sum of FIC for test compound in presence of meropenem and FIC for meropenem in presence of test compound incubated for 24 hrs by checkerboard titration assay
[36] = system: Staphylococcus aureus; experiment: Potentiation of daptomycin-induced antibacterial activity against Staphylococcus aureus ATCC 29213 assessed as daptomycin MIC incubated for 24 hrs by checkerboard titration assay (reference value: 0.5 ug/ml); conditions: ATCC 29213, 24 h
[37] = system: Staphylococcus aureus; experiment: Synergistic antibacterial activity against Staphylococcus aureus ATCC 29213 assessed as sum of FIC for test compound in presence of daptomycin and FIC for daptomycin in presence of test compound incubated for 24 hrs by checkerboard titration assay
[38] = system: Staphylococcus aureus; experiment: Antibacterial activity against methicillin-resistant Staphylococcus aureus NR10129 incubated for 16 to 18 hrs by broth microdilution assay
[39] = system: Staphylococcus aureus; experiment: Antibacterial activity against methicillin-resistant Staphylococcus aureus NR10186 incubated for 16 to 18 hrs by broth microdilution assay
[40] = system: Staphylococcus aureus; experiment: Synergistic antibacterial activity against Staphylococcus aureus ATCC 29213 assessed as sum of FIC for test compound in presence of vancomycin and FIC for vancomycin in presence of test compound incubated for 24 hrs by checkerboard titration assay
[41] = system: Staphylococcus aureus; experiment: Synergistic antibacterial activity against Staphylococcus aureus ATCC 29213 assessed as sum of FIC for test compound in presence of rifampicin and FIC for rifampicin in presence of test compound incubated for 24 hrs by checkerboard titration assay

For N#Cc1ccc(/C=C/c2nc3cccc(F)c3c(=O)n2-c2cccc(O)c2)cc1, the FIC [1] was 0.0037, the MIC [2] was < 0.125 µg/mL and the FIC [3] was 0.0625. It also gave an MIC [4] of 0.125 µg/mL (≈ 0.326 µM), an MIC [5] of 0.0078 µg/mL and an MIC [6] of 0.0078 µg/mL. The MIC [7] was 0.0009 µg/mL, the MIC [8] was 0.125 µg/mL (≈ 0.326 µM) and the MIC [9] was < 0.125 µg/mL. It also gave an MIC [10] of 0.0078 µg/mL, an FIC [11] of 0.0625 and an MIC [12] of 0.0039 µg/mL. For the same compound, the MIC [13] was 0.0075 µg/mL, the MIC [14] was > 64 µg/mL and the MIC [15] was 0.25 µg/mL (≈ 0.652 µM). For the same compound, the FIC [16] was 0.0625, the MIC [17] was > 64 µg/mL and the FIC [18] was 0.0662. It also gave an FIC [19] of 0.0072, an MIC [20] of 0.0078 µg/mL and an MIC [21] of 0.0078 µg/mL. The FIC [22] was 0.0625, the MIC [23] was 0.0078 µg/mL and the FIC [24] was 0.0078. For the same compound, the MIC [25] was < 0.125 µg/mL, the MIC [26] was 0.0078 µg/mL and the MIC [27] was > 64 µg/mL. The FIC [28] was 0.0703, the FIC [29] was 0.0625 and the MIC [30] was < 0.125 µg/mL. The MIC [31] was 0.125 to 0.25 µg/mL (≈ 0.326 to 0.652 µM), the MIC [32] was 0.5 µg/mL (≈ 1.3 µM) and the MIC [33] was < 0.125 µg/mL. It also gave an MIC [34] of 0.0625 µg/mL (≈ 0.163 µM), an FIC [35] of 0.0643 and an MIC [36] of 0.0019 µg/mL. For the same compound, the FIC [37] was 0.0644, the MIC [38] was < 0.125 µg/mL and the MIC [39] was < 0.125 µg/mL. The FIC [40] was 0.0664 and the FIC [41] was 0.0645.

For N#Cc1ccc(/C=C/c2nc3ccccc3c(=O)n2-c2ccc(C(=O)O)c(O)c2)cc1, the FIC [1] was 0.003, the MIC [2] was < 0.125 µg/mL and the FIC [3] was 0.032. The MIC [4] was 0.125 µg/mL (≈ 0.305 µM), the MIC [5] was 0.0019 µg/mL and the MIC [6] was 0.0019 µg/mL. The MIC [7] was 0.0009 µg/mL, the MIC [8] was 0.125 µg/mL (≈ 0.305 µM) and the MIC [9] was < 0.125 µg/mL. It also gave an MIC [10] of 0.0019 µg/mL, an FIC [11] of 0.032 and an MIC [12] of 0.0039 µg/mL. The MIC [13] was 0.0075 µg/mL, the MIC [14] was > 64 µg/mL and the MIC [15] was 0.125 to 0.25 µg/mL (≈ 0.305 to 0.611 µM). For the same compound, the FIC [16] was 0.032, the MIC [17] was > 64 µg/mL and the FIC [18] was 0.036. The FIC [19] was 0.007, the MIC [20] was 0.0019 µg/mL and the MIC [21] was 0.0019 µg/mL. It also gave an FIC [22] of 0.032, an MIC [23] of 0.0019 µg/mL and an FIC [24] of 0.007. For the same compound, the MIC [25] was < 0.125 µg/mL, the MIC [26] was 0.0019 µg/mL and the MIC [27] was > 64 µg/mL. It also gave an FIC [28] of 0.04, an FIC [29] of 0.032 and an MIC [30] of 0.125 to 0.25 µg/mL (≈ 0.305 to 0.611 µM). For the same compound, the MIC [31] was < 0.125 µg/mL, the MIC [32] was 0.125 to 0.25 µg/mL (≈ 0.305 to 0.611 µM) and the MIC [33] was < 0.125 µg/mL. For the same compound, the MIC [34] was 0.03 µg/mL (≈ 0.0733 µM), the FIC [35] was 0.036 and the MIC [36] was 0.0019 µg/mL. The FIC [37] was 0.036, the MIC [38] was < 0.125 µg/mL and the MIC [39] was < 0.125 µg/mL. For the same compound, the FIC [40] was 0.036 and the FIC [41] was 0.034.
